Experimental data as given in PubChem BioAssay AID1963966 (Molecular Pharmacology Branch, DTP, NCI, 2024).

Tested on: 935938-334-R-J1-PDC spheroids with HUVEC/MSC, viability
Assay: Anticancer human tumor 935938-334-R-J1-PDC patient-derived small intestine adenocarcinoma cell line growth inhibition [PI3K]
Conditions: for IC50: curve of first compound; for viability, T/C: stronger effect = lower value
Method in brief: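 Agents were dosed from a top concentration near clinical Cmax (otherwise 10 microM) in half-log decrements, alone or combined with PI3K inhibitors. The spheroids contain tumor cells plus endothelial (HUVEC) and MSC stroma; viability is measured.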

[1] = second compound 0.0316 µM, first compound 0.0316 µM
[2] = second compound 0.0316 µM, first compound 0.1 µM
[3] = second compound 0.0316 µM, first compound 0.316 µM
[4] = second compound 0.0316 µM, first compound 1 µM
[5] = second compound 0.0316 µM, first compound 3.16 µM
[6] = second compound 0.0316 µM, first compound 10 µM
[7] = second compound 0.1 µM, first compound 0.0316 µM
[8] = second compound 0.1 µM, first compound 0.1 µM
[9] = second compound 0.1 µM, first compound 0.316 µM
[10] = second compound 0.1 µM, first compound 1 µM
[11] = second compound 0.1 µM, first compound 3.16 µM
[12] = second compound 0.1 µM, first compound 10 µM
[13] = second compound 0.316 µM, first compound 0.0316 µM
[14] = second compound 0.316 µM, first compound 0.1 µM
[15] = second compound 0.316 µM, first compound 0.316 µM
[16] = second compound 0.316 µM, first compound 1 µM
[17] = second compound 0.316 µM, first compound 3.16 µM
[18] = second compound 0.316 µM, first compound 10 µM
[19] = second compound 1 µM, first compound 0.0316 µM
[20] = second compound 1 µM, first compound 0.1 µM
[21] = second compound 1 µM, first compound 0.316 µM
[22] = second compound 1 µM, first compound 1 µM
[23] = second compound 1 µM, first compound 3.16 µM
[24] = second compound 1 µM, first compound 10 µM
[25] = second compound 3.16 µM, first compound 0.0316 µM
[26] = second compound 3.16 µM, first compound 0.1 µM
[27] = second compound 3.16 µM, first compound 0.316 µM
[28] = second compound 3.16 µM, first compound 1 µM
[29] = second compound 3.16 µM, first compound 3.16 µM
[30] = second compound 3.16 µM, first compound 10 µM
[31] = second compound 10 µM, first compound 0.0316 µM
[32] = second compound 10 µM, first compound 0.1 µM
[33] = second compound 10 µM, first compound 0.316 µM
[34] = second compound 10 µM, first compound 1 µM
[35] = second compound 10 µM, first compound 3.16 µM
[36] = second compound 10 µM, first compound 10 µM
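Also: compound exposure lasted seven days before viability was read.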
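For viability, T/C in this document: percent of vehicle DMSO treated spheroid viability so 100% = untreated.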

Which results are given for CC1(C)CCC(Nc2ncc(C(F)(F)F)c(-c3c[nH]c4c(P(C)(C)=O)c(C#N)ccc34)n2)CN1 (stereo unspecified) + CC(Nc1ncnc2nc[nH]c12)c1cc2cccc(Cl)c2c(=O)n1-c1ccccc1?
IC50 (second compound 0.0316 µM): < 31.6 nM; IC50 (second compound 0.1 µM): < 31.6 nM; IC50 (second compound 0.316 µM): < 31.6 nM; IC50 (second compound 1 µM): < 31.6 nM; IC50 (second compound 3.16 µM): < 31.6 nM; IC50 (second compound 10 µM): < 31.6 nM; viability, T/C [1]: 43%; viability, T/C [2]: 46.4%; viability, T/C [3]: 31.9%; viability, T/C [4]: 35.3%; viability, T/C [5]: 34.8%; viability, T/C [6]: 5.59%; viability, T/C [7]: 42.3%; viability, T/C [8]: 36.5%; viability, T/C [9]: 32.7%; viability, T/C [10]: 36.9%; viability, T/C [11]: 35.1%; viability, T/C [12]: 6.35%; viability, T/C [13]: 38%; viability, T/C [14]: 37.1%; viability, T/C [15]: 41.2%; viability, T/C [16]: 36.5%; viability, T/C [17]: 26.8%; viability, T/C [18]: 6.84%; viability, T/C [19]: 42%; viability, T/C [20]: 35.5%; viability, T/C [21]: 41%; viability, T/C [22]: 34.8%; viability, T/C [23]: 33.2%; viability, T/C [24]: 7.47%; viability, T/C [25]: 30.8%; viability, T/C [26]: 38.6%; viability, T/C [27]: 41.8%; viability, T/C [28]: 36.2%; viability, T/C [29]: 32.6%; viability, T/C [30]: 5.17%; viability, T/C [31]: 37.8%; viability, T/C [32]: 37%; viability, T/C [33]: 35.9%; viability, T/C [34]: 35.1%; viability, T/C [35]: 28.5%; viability, T/C [36]: 5.58%

With Cn1ncc(Cl)c1-c1cc(C(=O)NC(CN)Cc2cccc(F)c2)sc1Cl (stereo unspecified) + CC(Nc1ncnc2nc[nH]c12)c1cc2cccc(Cl)c2c(=O)n1-c1ccccc1 as the molecule, how does the IC50 (second compound 0.0316 µM) read?
The IC50 was over 10000 nM.

What about the IC50 (second compound 0.1 µM) of the same molecule?
The IC50 was over 10000 nM.

And the IC50 (second compound 0.316 µM)?
Its IC50 is 3110 nM.

And the IC50 (second compound 1 µM)?
The IC50 was 2710 nM.

What about the IC50 (second compound 3.16 µM) of the same molecule?
Its IC50 is 1760 nM.

What about the IC50 (second compound 10 µM) of the same molecule?
The IC50 was 271 nM.

And the viability, T/C [1]?
The viability, T/C was 73%.

What about the viability, T/C [2] of the same molecule?
The viability, T/C was 91.4%.

What about the viability, T/C [3] of the same molecule?
Its viability, T/C is 65.3%.

What about the viability, T/C [4] of the same molecule?
The viability, T/C was 65.4%.

What about the viability, T/C [5] of the same molecule?
Its viability, T/C is 54.6%.

What about the viability, T/C [6] of the same molecule?
The viability, T/C was 51.3%.

What about the viability, T/C [7] of the same molecule?
Its viability, T/C is 92.6%.

What about the viability, T/C [8] of the same molecule?
The viability, T/C was 88.9%.

And the viability, T/C [9]?
Its viability, T/C is 88.1%.

And the viability, T/C [10]?
The viability, T/C was 63.2%.

What about the viability, T/C [11] of the same molecule?
The viability, T/C was 56.8%.

And the viability, T/C [12]?
The viability, T/C was 58.1%.

What about the viability, T/C [13] of the same molecule?
The viability, T/C was 104%.

What about the viability, T/C [14] of the same molecule?
Its viability, T/C is 128%.

What about the viability, T/C [15] of the same molecule?
The viability, T/C was 75%.

And the viability, T/C [16]?
Its viability, T/C is 78.4%.

What about the viability, T/C [17] of the same molecule?
The viability, T/C was 49.3%.

And the viability, T/C [18]?
The viability, T/C was 34%.

And the viability, T/C [19]?
Its viability, T/C is 73.5%.

What about the viability, T/C [20] of the same molecule?
The viability, T/C was 97.8%.

What about the viability, T/C [21] of the same molecule?
Its viability, T/C is 73.1%.

And the viability, T/C [22]?
Its viability, T/C is 61.6%.

What about the viability, T/C [23] of the same molecule?
The viability, T/C was 51.3%.

And the viability, T/C [24]?
The viability, T/C was 36.3%.

And the viability, T/C [25]?
The viability, T/C was 72.2%.

What about the viability, T/C [26] of the same molecule?
The viability, T/C was 74.1%.

What about the viability, T/C [27] of the same molecule?
Its viability, T/C is 61.5%.

And the viability, T/C [28]?
Its viability, T/C is 47.9%.

What about the viability, T/C [29] of the same molecule?
The viability, T/C was 52.5%.

What about the viability, T/C [30] of the same molecule?
Its viability, T/C is 33.2%.

What about the viability, T/C [31] of the same molecule?
The viability, T/C was 73.2%.

What about the viability, T/C [32] of the same molecule?
The viability, T/C was 83.9%.

What about the viability, T/C [33] of the same molecule?
The viability, T/C was 45.5%.

What about the viability, T/C [34] of the same molecule?
Its viability, T/C is 52.7%.

And the viability, T/C [35]?
Its viability, T/C is 39.4%.

What about the viability, T/C [36] of the same molecule?
The viability, T/C was 34.5%.

Which IC50 (second compound 0.0316 µM) does the source give for Cn1nccc1Nc1nccc(-c2ccn(C(CO)c3ccc(Cl)c(F)c3)c(=O)c2)n1 (stereo unspecified) + CC(Nc1ncnc2nc[nH]c12)c1cc2cccc(Cl)c2c(=O)n1-c1ccccc1 here?
Its IC50 is 767 nM.

And the IC50 (second compound 0.1 µM)?
Its IC50 is 1460 nM.

And the IC50 (second compound 0.316 µM)?
Its IC50 is 1300 nM.

And the IC50 (second compound 1 µM)?
Its IC50 is 1280 nM.

And the IC50 (second compound 3.16 µM)?
Its IC50 is 529 nM.

And the IC50 (second compound 10 µM)?
Its IC50 is 143 nM.

And the viability, T/C [1]?
Its viability, T/C is 85.2%.

And the viability, T/C [2]?
Its viability, T/C is 79.2%.

What about the viability, T/C [3] of the same molecule?
Its viability, T/C is 66.3%.

What about the viability, T/C [4] of the same molecule?
Its viability, T/C is 46.7%.

What about the viability, T/C [5] of the same molecule?
The viability, T/C was 31.1%.

And the viability, T/C [6]?
The viability, T/C was 38.6%.

And the viability, T/C [7]?
Its viability, T/C is 99.6%.

And the viability, T/C [8]?
Its viability, T/C is 91.1%.

And the viability, T/C [9]?
Its viability, T/C is 73%.

What about the viability, T/C [10] of the same molecule?
Its viability, T/C is 54.4%.

And the viability, T/C [11]?
The viability, T/C was 41.4%.

What about the viability, T/C [12] of the same molecule?
The viability, T/C was 33.6%.

What about the viability, T/C [13] of the same molecule?
The viability, T/C was 87.9%.

What about the viability, T/C [14] of the same molecule?
The viability, T/C was 101%.

What about the viability, T/C [15] of the same molecule?
The viability, T/C was 63.2%.

And the viability, T/C [16]?
The viability, T/C was 56.2%.

And the viability, T/C [17]?
The viability, T/C was 41.1%.

What about the viability, T/C [18] of the same molecule?
Its viability, T/C is 28.3%.

And the viability, T/C [19]?
The viability, T/C was 96.2%.

And the viability, T/C [20]?
The viability, T/C was 81.3%.

What about the viability, T/C [21] of the same molecule?
The viability, T/C was 57.1%.

What about the viability, T/C [22] of the same molecule?
Its viability, T/C is 61%.

What about the viability, T/C [23] of the same molecule?
The viability, T/C was 39.6%.

And the viability, T/C [24]?
The viability, T/C was 27.9%.

And the viability, T/C [25]?
Its viability, T/C is 74.1%.

What about the viability, T/C [26] of the same molecule?
The viability, T/C was 77.8%.

What about the viability, T/C [27] of the same molecule?
The viability, T/C was 55.3%.

And the viability, T/C [28]?
Its viability, T/C is 43.1%.

And the viability, T/C [29]?
Its viability, T/C is 32.4%.

What about the viability, T/C [30] of the same molecule?
The viability, T/C was 33.6%.

And the viability, T/C [31]?
The viability, T/C was 63.4%.

And the viability, T/C [32]?
The viability, T/C was 53.5%.

And the viability, T/C [33]?
The viability, T/C was 43.8%.

And the viability, T/C [34]?
The viability, T/C was 33.6%.

And the viability, T/C [35]?
The viability, T/C was 32.6%.

What about the viability, T/C [36] of the same molecule?
Its viability, T/C is 25.3%.
